Earlier results as cited in patent US10864193B2, “Parasiticidal compositions comprising fipronil at high concentrations” (BOEHRINGER INGELHEIM ANIMAL HEALTH USA INC., priority 2014, dated 2020).

Settings: beagle dogs, spot-on administration, 14C radiolabeled drug

N#Cc1nn(-c2c(Cl)cc(C(F)(F)F)cc2Cl)c(N)c1[S+]([O-])C(F)(F)F (stereo not shown) [fipronil, 5-amino-3-cyano-1-(2,6-dichloro-4-trifluoromethylphenyl)-4-trifluoromethylsulfinylpyrazole]
time persistently detected in the whole skin after treatment: up to 56 days
